Measurements published in PubChem BioAssay AID1918958 (Molecular Pharmacology Branch, DTP, NCI, 2023).

Tested on: NCI-H196 complex spheroid viability
Experiment: Anticancer human tumor NCI-H196 cell line growth inhibition [LSD1];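 also: spheroids exposed to agents for 7 days before readout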;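 as to viability, T/C: 100% = DMSO vehicle control viability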
Conditions: for IC50: curve of first compound; for viability, T/C: stronger effect = lower value
Outline: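 Drug combinations with the LSD1 inhibitor iadademstat tested on tumor cells co-cultured as spheroids with endothelial cells and mesenchymal stem cells. Concentrations descended in half-log increments from clinical Cmax or 10 microM.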

[1] = second compound 0.1 µM, first compound 0.000316 µM
[2] = second compound 0.1 µM, first compound 0.001 µM
[3] = second compound 0.1 µM, first compound 0.00316 µM
[4] = second compound 0.1 µM, first compound 0.01 µM
[5] = second compound 0.1 µM, first compound 0.0316 µM
[6] = second compound 0.1 µM, first compound 0.1 µM
[7] = second compound 0.316 µM, first compound 0.000316 µM
[8] = second compound 0.316 µM, first compound 0.001 µM
[9] = second compound 0.316 µM, first compound 0.00316 µM
[10] = second compound 0.316 µM, first compound 0.01 µM
[11] = second compound 0.316 µM, first compound 0.0316 µM
[12] = second compound 0.316 µM, first compound 0.1 µM
[13] = second compound 1 µM, first compound 0.000316 µM
[14] = second compound 1 µM, first compound 0.001 µM
[15] = second compound 1 µM, first compound 0.00316 µM
[16] = second compound 1 µM, first compound 0.01 µM
[17] = second compound 1 µM, first compound 0.0316 µM
[18] = second compound 1 µM, first compound 0.1 µM
[19] = second compound 3.16 µM, first compound 0.000316 µM
[20] = second compound 3.16 µM, first compound 0.001 µM
[21] = second compound 3.16 µM, first compound 0.00316 µM
[22] = second compound 3.16 µM, first compound 0.01 µM
[23] = second compound 3.16 µM, first compound 0.0316 µM
[24] = second compound 3.16 µM, first compound 0.1 µM
[25] = second compound 10 µM, first compound 0.000316 µM
[26] = second compound 10 µM, first compound 0.001 µM
[27] = second compound 10 µM, first compound 0.00316 µM
[28] = second compound 10 µM, first compound 0.01 µM
[29] = second compound 10 µM, first compound 0.0316 µM
[30] = second compound 10 µM, first compound 0.1 µM

## CC(C)CC(NC(=O)C(Cc1ccccc1)NC(=O)c1cnccn1)B(O)O (stereo not given) + NC1CC1c1ccc(-c2cccc(O)c2)cc1
Second compound 0.1 µM
  IC50: 0.36 nM
Second compound 0.316 µM
  IC50: 0.373 nM
Second compound 1 µM
  IC50: 0.392 nM
Second compound 3.16 µM
  IC50: 0.375 nM
Second compound 10 µM
  IC50: < 0.316 nM
[1]
  viability, T/C: 55.9%
[2]
  viability, T/C: 3.85%
[3]
  viability, T/C: 4.59%
[4]
  viability, T/C: 4.04%
[5]
  viability, T/C: 1.83%
[6]
  viability, T/C: 0.7%
[7]
  viability, T/C: 57.6%
[8]
  viability, T/C: 4.64%
[9]
  viability, T/C: 3.15%
[10]
  viability, T/C: 2.27%
[11]
  viability, T/C: 1.73%
[12]
  viability, T/C: 0.55%
[13]
  viability, T/C: 60.4%
[14]
  viability, T/C: 4.41%
[15]
  viability, T/C: 3.18%
[16]
  viability, T/C: 2.18%
[17]
  viability, T/C: 1.28%
[18]
  viability, T/C: 0.5%
[19]
  viability, T/C: 58.1%
[20]
  viability, T/C: 3.39%
[21]
  viability, T/C: 2.47%
[22]
  viability, T/C: 1.72%
[23]
  viability, T/C: 1.87%
[24]
  viability, T/C: 0.31%
[25]
  viability, T/C: 42.5%
[26]
  viability, T/C: 2.54%
[27]
  viability, T/C: 2.01%
[28]
  viability, T/C: 1.21%
[29]
  viability, T/C: 0.62%
[30]
  viability, T/C: 0.38%

## CC(C)CC(NC(=O)CNC(=O)c1cc(Cl)ccc1Cl)B1OC(=O)CC(CC(=O)O)(C(=O)O)O1 (stereo not given) + NC1CC1c1ccc(-c2cccc(O)c2)cc1
Second compound 0.1 µM
  IC50: 13.6 nM
Second compound 0.316 µM
  IC50: 13.4 nM
Second compound 1 µM
  IC50: 10.1 nM
Second compound 3.16 µM
  IC50: 10.5 nM
Second compound 10 µM
  IC50: 10.2 nM
[1]
  viability, T/C: 99.7%
[2]
  viability, T/C: 100%
[3]
  viability, T/C: 97.6%
[4]
  viability, T/C: 58.7%
[5]
  viability, T/C: 21.7%
[6]
  viability, T/C: 4.21%
[7]
  viability, T/C: 92.7%
[8]
  viability, T/C: 99.2%
[9]
  viability, T/C: 92.8%
[10]
  viability, T/C: 59.9%
[11]
  viability, T/C: 19%
[12]
  viability, T/C: 4.26%
[13]
  viability, T/C: 97.5%
[14]
  viability, T/C: 106%
[15]
  viability, T/C: 93.3%
[16]
  viability, T/C: 48.8%
[17]
  viability, T/C: 17%
[18]
  viability, T/C: 4.69%
[19]
  viability, T/C: 91%
[20]
  viability, T/C: 109%
[21]
  viability, T/C: 89.2%
[22]
  viability, T/C: 49.3%
[23]
  viability, T/C: 19.2%
[24]
  viability, T/C: 3.44%
[25]
  viability, T/C: 105%
[26]
  viability, T/C: 98.8%
[27]
  viability, T/C: 84.2%
[28]
  viability, T/C: 52.9%
[29]
  viability, T/C: 13.4%
[30]
  viability, T/C: 2.91%

## COc1cc(Nc2ncc3c(n2)-c2ccc(Cl)cc2C(c2c(F)cccc2OC)=NC3)ccc1C(=O)O + NC1CC1c1ccc(-c2cccc(O)c2)cc1
Second compound 0.1 µM
  IC50: > 1000 nM
Second compound 0.316 µM
  IC50: > 1000 nM
Second compound 1 µM
  IC50: > 1000 nM
Second compound 3.16 µM
  IC50: > 1000 nM
Second compound 10 µM
  IC50: > 1000 nM
[3]
  viability, T/C: 88.2%
[4]
  viability, T/C: 92.9%
[5]
  viability, T/C: 105%
[6]
  viability, T/C: 104%
Second compound 0.1 µM, first compound 0.316 µM
  viability, T/C: 121%
Second compound 0.1 µM, first compound 1 µM
  viability, T/C: 143%
[9]
  viability, T/C: 87.3%
[10]
  viability, T/C: 97.6%
[11]
  viability, T/C: 109%
[12]
  viability, T/C: 113%
Second compound 0.316 µM, first compound 0.316 µM
  viability, T/C: 120%
Second compound 0.316 µM, first compound 1 µM
  viability, T/C: 119%
[15]
  viability, T/C: 93%
[16]
  viability, T/C: 115%
[17]
  viability, T/C: 118%
[18]
  viability, T/C: 126%
Second compound 1 µM, first compound 0.316 µM
  viability, T/C: 116%
Second compound 1 µM, first compound 1 µM
  viability, T/C: 118%
[21]
  viability, T/C: 98.5%
[22]
  viability, T/C: 104%
[23]
  viability, T/C: 108%
[24]
  viability, T/C: 110%
Second compound 3.16 µM, first compound 0.316 µM
  viability, T/C: 124%
Second compound 3.16 µM, first compound 1 µM
  viability, T/C: 112%
[27]
  viability, T/C: 98.3%
[28]
  viability, T/C: 114%
[29]
  viability, T/C: 112%
[30]
  viability, T/C: 119%
Second compound 10 µM, first compound 0.316 µM
  viability, T/C: 125%
Second compound 10 µM, first compound 1 µM
  viability, T/C: 118%

## O=C(C=Cc1cccc(S(=O)(=O)Nc2ccccc2)c1)NO + NC1CC1c1ccc(-c2cccc(O)c2)cc1
Second compound 0.1 µM
  IC50: 138 nM
Second compound 0.316 µM
  IC50: 129 nM
Second compound 1 µM
  IC50: 149 nM
Second compound 3.16 µM
  IC50: 137 nM
Second compound 10 µM
  IC50: 152 nM
Second compound 0.1 µM, first compound 0.00949 µM
  viability, T/C: 106%
Second compound 0.1 µM, first compound 0.03 µM
  viability, T/C: 91.2%
Second compound 0.1 µM, first compound 0.0949 µM
  viability, T/C: 70.3%
Second compound 0.1 µM, first compound 0.3 µM
  viability, T/C: 9.6%
Second compound 0.1 µM, first compound 0.949 µM
  viability, T/C: 0.22%
Second compound 0.1 µM, first compound 3 µM
  viability, T/C: 0.32%
Second compound 0.316 µM, first compound 0.00949 µM
  viability, T/C: 96.7%
Second compound 0.316 µM, first compound 0.03 µM
  viability, T/C: 92.6%
Second compound 0.316 µM, first compound 0.0949 µM
  viability, T/C: 64.3%
Second compound 0.316 µM, first compound 0.3 µM
  viability, T/C: 10.6%
Second compound 0.316 µM, first compound 0.949 µM
  viability, T/C: 0.24%
Second compound 0.316 µM, first compound 3 µM
  viability, T/C: 0.42%
Second compound 1 µM, first compound 0.00949 µM
  viability, T/C: 112%
Second compound 1 µM, first compound 0.03 µM
  viability, T/C: 89.5%
Second compound 1 µM, first compound 0.0949 µM
  viability, T/C: 75.1%
Second compound 1 µM, first compound 0.3 µM
  viability, T/C: 13.9%
Second compound 1 µM, first compound 0.949 µM
  viability, T/C: 1.06%
Second compound 1 µM, first compound 3 µM
  viability, T/C: 0.34%
Second compound 3.16 µM, first compound 0.00949 µM
  viability, T/C: 101%
Second compound 3.16 µM, first compound 0.03 µM
  viability, T/C: 101%
Second compound 3.16 µM, first compound 0.0949 µM
  viability, T/C: 68.6%
Second compound 3.16 µM, first compound 0.3 µM
  viability, T/C: 10%
Second compound 3.16 µM, first compound 0.949 µM
  viability, T/C: 1.82%
Second compound 3.16 µM, first compound 3 µM
  viability, T/C: 0.33%
Second compound 10 µM, first compound 0.00949 µM
  viability, T/C: 115%
Second compound 10 µM, first compound 0.03 µM
  viability, T/C: 92.6%
Second compound 10 µM, first compound 0.0949 µM
  viability, T/C: 76.3%
Second compound 10 µM, first compound 0.3 µM
  viability, T/C: 14.5%
Second compound 10 µM, first compound 0.949 µM
  viability, T/C: 0.36%
Second compound 10 µM, first compound 3 µM
  viability, T/C: 0.36%
